Molecular target: Adenosine 5'-monophosphoramidase HINT1 (Homo sapiens) (UniProt P49773)
Assay: Ratio of kcat to km for human HINT1

Chain of Adenosine 5'-monophosphoramidase HINT1 (Homo sapiens) (P49773 whole entry): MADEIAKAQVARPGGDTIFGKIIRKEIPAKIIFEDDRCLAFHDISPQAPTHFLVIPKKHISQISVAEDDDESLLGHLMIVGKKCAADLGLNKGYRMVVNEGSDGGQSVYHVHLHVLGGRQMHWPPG

With `Cc1cn([C@H]2C[C@H](N=[N+]=[N-])[C@@H](COP(=O)(O)NCc3c[nH]c4ccccc34)O2)c(=O)[nH]c1=O` as the compound, how does the Ratio read?
Its Ratio is 25.
